Results reported in PubChem BioAssay AID248 (DTP/NCI, 2004).
Where “and” joins values, the source holds several entries; their conditions need not be identical. Equal values may be shown once. Toxic doses and inconclusive results are not listed. Cut-off read from the data, not from the text of the source: active = T/C of 150% or more; inactive = T/C below 125%.

Test system: L1210 leukemia ip in BDF1 mice, survival T/C
Assay: NCI In Vivo Anticancer Drug Screen. Data for tumor model L1210 Leukemia (intraperitoneal) in B6D2F1 (BDF1) mice
Conditions: endpoint: mean survival time, higher = longer survival
Outline: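 Ratio derived from survival: compound-dosed mice over vehicle-dosed mice, all bearing a transplantable tumor.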

[1] = dose: 100.0 mg/kg/injection, schedule: Q04DX003 (ip), vehicle: saline with Tween-80
[2] = dose: 100.0 mg/kg/injection, schedule: Q04DX003 (ip), vehicle: Klucel (hydroxypropylcellulose) (HPC)
[3] = dose: 200.0 mg/kg/injection, schedule: Q04DX003 (ip), vehicle: Klucel (hydroxypropylcellulose) (HPC)
[4] = dose: 400.0 mg/kg/injection, schedule: Q04DX003 (ip), vehicle: Klucel (hydroxypropylcellulose) (HPC)
[5] = dose: 100.0 mg/kg/injection, schedule: Q01DX001 (ip), vehicle: saline
[6] = dose: 100.0 mg/kg/injection, schedule: Q04DX003 (ip), vehicle: saline
[7] = dose: 100.0 mg/kg/injection, schedule: Q01DX001 (ip), vehicle: Klucel (hydroxypropylcellulose) (HPC)
[8] = dose: 200.0 mg/kg/injection, schedule: Q01DX001 (ip), vehicle: Klucel (hydroxypropylcellulose) (HPC)
[9] = dose: 100.0 mg/kg/injection, schedule: Q04DX002 (ip), vehicle: Klucel (hydroxypropylcellulose) (HPC)
[10] = dose: 200.0 mg/kg/injection, schedule: Q04DX002 (ip), vehicle: Klucel (hydroxypropylcellulose) (HPC)

Measured: T/C

NC(=O)OCCOCCOC(N)=O
inactive: [1] 98 % of control | dose: 200.0 mg/kg/injection, schedule: Q04DX003 (ip), vehicle: saline with Tween-80 98 % of control | dose: 400.0 mg/kg/injection, schedule: Q04DX003 (ip), vehicle: saline with Tween-80 101 % of control

NC(=O)N1CCN(c2ccccc2)CC1
inactive: [2] 95 % of control | [3] 97 % of control | [4] 101 % of control

CSc1nc(O)cc(=O)n1C
inactive: dose: 100.0 mg/kg/injection, schedule: Q01DX Z (ip), vehicle: methylcellulose (MC) 95 % of control | dose: 200.0 mg/kg/injection, schedule: Q01DX Z (ip), vehicle: methylcellulose (MC) 101 % of control

CN=C(N)N(C)NCc1ccccc1
inactive: dose: 25.0 mg/kg/injection, schedule: Q04DX003 (ip), vehicle: saline 100 % of control | dose: 50.0 mg/kg/injection, schedule: Q04DX003 (ip), vehicle: saline 109 % of control | [5] 97 % of control | [6] 105 % of control

O=C(N/C(=C/c1ccc([N+](=O)[O-])cc1)C(=O)c1ccccc1)c1ccc([N+](=O)[O-])cc1
inactive: dose: 50.0 mg/kg/injection, schedule: Q01DX001 (ip), vehicle: saline 101 % of control | [5] 103 % of control | dose: 200.0 mg/kg/injection, schedule: Q01DX001 (ip), vehicle: saline 97 % of control | dose: 400.0 mg/kg/injection, schedule: Q01DX001 (ip), vehicle: saline 90 % of control

CC(C)(C)C(=O)Nc1ccc(NS(=O)(=O)c2ccccc2)c(Cl)c1
inactive: dose: 50.0 mg/kg/injection, schedule: Q01DX001 (ip), vehicle: Klucel (hydroxypropylcellulose) (HPC) 108 % of control | [7] 97 % of control | [8] 109 % of control

CCOc1ccc(/C=N/NC(=O)c2ccc(N=NN(C)C)cc2)cc1
inactive: dose: 75.0 mg/kg/injection, schedule: Q04DX003 (ip), vehicle: Klucel (hydroxypropylcellulose) (HPC) 94 % of control | dose: 150.0 mg/kg/injection, schedule: Q04DX003 (ip), vehicle: Klucel (hydroxypropylcellulose) (HPC) 90 % of control | dose: 300.0 mg/kg/injection, schedule: Q04DX003 (ip), vehicle: Klucel (hydroxypropylcellulose) (HPC) 87 % of control

Cc1cc(N(CCCl)CCCl)ccc1C=Nc1ccc2c(c1)ncn2C
inactive: [9] 98 % of control | [10] 98 % of control | dose: 400.0 mg/kg/injection, schedule: Q04DX002 (ip), vehicle: Klucel (hydroxypropylcellulose) (HPC) 98 % of control

CN(C)CCNCC(=O)CC(O)(C(F)(F)F)C(F)(F)F
inactive: [7] 96 % of control | [2] 108 % of control | [8] 109 % of control | [3] 97 % of control | dose: 400.0 mg/kg/injection, schedule: Q01DX001 (ip), vehicle: Klucel (hydroxypropylcellulose) (HPC) 104 % of control | [4] 113 % of control

NC(=O)c1ccccc1Cl
inactive: dose: 100.0 mg/kg/injection, schedule: Q01DX001 (ip), vehicle: saline with Tween-80 104 % of control | dose: 100.0 mg/kg/injection, schedule: Q01DX009 (ip), vehicle: saline sonified 105 % of control | dose: 200.0 mg/kg/injection, schedule: Q01DX001 (ip), vehicle: saline with Tween-80 102 % of control | dose: 200.0 mg/kg/injection, schedule: Q01DX009 (ip), vehicle: saline sonified 89 % of control | dose: 400.0 mg/kg/injection, schedule: Q01DX001 (ip), vehicle: saline with Tween-80 101 % of control | dose: 400.0 mg/kg/injection, schedule: Q01DX009 (ip), vehicle: saline sonified 100 % of control

Cc1ccc(CNC(=O)NC(C)(C)C)cc1
inactive: dose: 100.0 mg/kg/injection, schedule: Q01DX009 (ip), vehicle: Klucel (hydroxypropylcellulose) (HPC) 93 % of control | dose: 200.0 mg/kg/injection, schedule: Q01DX009 (ip), vehicle: Klucel (hydroxypropylcellulose) (HPC) 101 % of control | dose: 400.0 mg/kg/injection, schedule: Q01DX009 (ip), vehicle: Klucel (hydroxypropylcellulose) (HPC) 90 % of control

NC(N)=N/N=C\c1ccc(O)c(O)c1
inactive: dose: 15.0 mg/kg/injection, schedule: Q01DX Z (ip), vehicle: carboxymethylcellulose (CMC) 97 % of control | dose: 30.0 mg/kg/injection, schedule: Q01DX Z (ip), vehicle: carboxymethylcellulose (CMC) 97 % of control | dose: 60.0 mg/kg/injection, schedule: Q01DX Z (ip), vehicle: carboxymethylcellulose (CMC) 113 % of control | dose: 120.0 mg/kg/injection, schedule: Q01DX Z (ip), vehicle: carboxymethylcellulose (CMC) 116 % of control | dose: 120.0 mg/kg/injection, schedule: Q01DX Z (oral), vehicle: carboxymethylcellulose (CMC) 109 % of control | dose: 240.0 mg/kg/injection, schedule: Q01DX Z (oral), vehicle: carboxymethylcellulose (CMC) 107 % of control | dose: 480.0 mg/kg/injection, schedule: Q01DX Z (oral), vehicle: carboxymethylcellulose (CMC) 103 % of control | dose: 960.0 mg/kg/injection, schedule: Q01DX Z (oral), vehicle: carboxymethylcellulose (CMC) 114 % of control

COc1ccc(Cl)cc1NC(=O)Nc1ccc(CCO)cc1
inactive: dose: 100.0 mg/kg/injection, schedule: Q01DX009 (ip), vehicle: saline 100 % of control | [6] 113 % of control | dose: 200.0 mg/kg/injection, schedule: Q01DX009 (ip), vehicle: saline 91 % of control | dose: 200.0 mg/kg/injection, schedule: Q04DX003 (ip), vehicle: saline 103 % of control | dose: 400.0 mg/kg/injection, schedule: Q01DX009 (ip), vehicle: saline 93 % of control | dose: 400.0 mg/kg/injection, schedule: Q04DX003 (ip), vehicle: saline 101 % of control

Cc1ccccc1SC(=O)Nc1cc([N+](=O)[O-])ccc1Cl
inactive: dose: 100.0 mg/kg/injection, schedule: Q01DX001 (ip), vehicle: carboxymethylcellulose (CMC) 94 % of control and 90 % of control | dose: 100.0 mg/kg/injection, schedule: Q01DX009 (ip), vehicle: carboxymethylcellulose (CMC) 96 % of control | dose: 100.0 mg/kg/injection, schedule: Q04DX002 (ip), vehicle: carboxymethylcellulose (CMC) 97 % of control and 99 % of control | dose: 100.0 mg/kg/injection, schedule: Q04DX003 (ip), vehicle: carboxymethylcellulose (CMC) 89 % of control | dose: 200.0 mg/kg/injection, schedule: Q01DX001 (ip), vehicle: carboxymethylcellulose (CMC) 94 % of control and 88 % of control | dose: 200.0 mg/kg/injection, schedule: Q01DX009 (ip), vehicle: carboxymethylcellulose (CMC) 98 % of control | dose: 200.0 mg/kg/injection, schedule: Q04DX002 (ip), vehicle: carboxymethylcellulose (CMC) 94 % of control and 101 % of control | dose: 200.0 mg/kg/injection, schedule: Q04DX003 (ip), vehicle: carboxymethylcellulose (CMC) 96 % of control and 91 % of control | dose: 400.0 mg/kg/injection, schedule: Q01DX001 (ip), vehicle: carboxymethylcellulose (CMC) 97 % of control and 90 % of control | dose: 400.0 mg/kg/injection, schedule: Q01DX009 (ip), vehicle: carboxymethylcellulose (CMC) 94 % of control | dose: 400.0 mg/kg/injection, schedule: Q04DX002 (ip), vehicle: carboxymethylcellulose (CMC) 95 % of control and 101 % of control | dose: 400.0 mg/kg/injection, schedule: Q04DX003 (ip), vehicle: carboxymethylcellulose (CMC) 96 % of control and 92 % of control

COc1ccc(C(c2ccc(Cl)cc2)N2CCNCC2)cc1 (configuration not stated)
inactive: dose: 25.0 mg/kg/injection, schedule: Q01DX009 (ip), vehicle: saline with Tween-80 98 % of control | dose: 50.0 mg/kg/injection, schedule: Q01DX009 (ip), vehicle: saline with Tween-80 96 % of control | dose: 100.0 mg/kg/injection, schedule: Q01DX009 (ip), vehicle: saline with Tween-80 96 % of control | [1] 102 % of control

Cc1ccc(S(=O)(=O)[n+]2ccc(C)cc2)cc1
inactive: [9] 98 % of control | [10] 95 % of control
